Source: patent US20230348418A1, “ISOINDOLINONE COMPOUNDS” (Monte Rosa Therapeutics, Inc., priority 2021, published 2023)
Read-outs that look alike come from different tables or passages of the source.

Columns and labels:
[1] = target: T1, GSPT1 (Homo sapiens, UniProt P15170+Q96SW2); assay: GSPT1 degradation in NCI-H1155 cells; assay type: cell-based
Experimental: (§1) GSPT1 was degraded by compound 10 after six hours of treatment in high N-Myc NCI-H1155 and ABC-1 cells with a DC50 of 3 nM and 22 nM, respectively (x-axys represents […]M concentration of compound 10; y-axis represents the viability in %).

[2] = test system: NCI-H1155; assay: viability of NSCLC cell line, high N-Myc (FIG. 2A); assay type: cell-based, human; conditions: compared to low N-Myc EBC-1 and NCI-H2023
Experimental: as §1

[3] = target: T2, Full length wild-type cereblon CRBN (Homo sapiens, UniProt Q96SW2); assay: Fluorescence polarization (FP) assay, cereblon binding
T2 construct: Full length wild-type cereblon CRBN (80.0 nM, 10 μL) was incubated in assay buffer
Outline: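 Full-length wild-type human CRBN (80.0 nM) was preincubated with compound for 30 min at room temperature in 20 mM HEPES pH 8.0, 150 NaCl, 0.5 mM TCEP and 0.05% Tween 20. A Cy5-type thalidomide-linked fluorescent probe was then added. The FP signal was normalized to the DMSO control to derive IC50.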

[4] = target: T3, IKZF1 (Ikaros) (Homo sapiens, UniProt Q13422); assay: Western blot selectivity assay in MM1S cells: IKZF1; assay type: cell-based; design: key: A represents a no degradation observed at 30 μM; B represents trace degradation at 30 μM (below 20%); C represents weak degradation at 30 μM (below 50%); D represents degradation at 30 μM (>90%); E represents degradation at 3 μM (>90%); F represents degradation at 0.3 μM (>90%); conditions: MM1S cells, 0.3, 3 and 30 μM, 6 hours
T3 construct: endogenous in cells; host or cells: MM1S (ATCC CRL-2974)
Experimental: MM1S cells were purchased from ATCC (cat. Number CRL-2974), sub-cultured in 90% RPMI 1640 with 10% FBS, supplemented with 1×P/S and incubated at 37° C., 5% CO2. Compounds were stored as 10 mM DMSO stock. For the assay, MM1S cells (3 million cells/well) were plated in 6-well plates and incubated over night. Cells were treated with respective compounds using a serial dilution: 0.3 μM, 3 μM and 30 μM as well as a vehicle only (DMSO) control for 6 hours. Media with suspension cells was subsequently transferred to 15 mL conical tubes, wells rinsed twice with ice-cold PBS and merged with cell suspension in respective 15 mL conical tube. Cells were spinned down, supernatant aspirated, pellets resuspended in ice-cold PBS and transferred to microtubes. Cells were spinned down, supernatant aspirated and pellets resuspended in 120 μL RIPA lysis buffer supplemented with protease and phosphatase inhibitors. Cell lysates were incubated on ice for 20 minutes followed by centrifugation at >20,000×g for 5 min. Supernatants were transferred to fresh microtubes and stored at −80° C. Total protein concentration was determined using a BCA assay with a BSA standard curve and concentration of all samples was adjusted to 1 mg/mL. 25 μL 4×LDS sample buffer supplemented with 100 mM DTT was added to 75 μL sample. Samples were centrifuged (8,000×g, 1 min) and incubated at 95° C. for 5 min followed by another centrifugation step (8,000×g, 1 min). 20 μL of each sample was loaded on a 4-12% gel alongside a protein molecular weight marker. Gels were run in the presence of MOPS buffer at 80 Volts for 30 min, followed by 120 Volts for 1.5 h and proteins subsequently transferred onto nitrocellulose membranes at 20 Volts for 7 min using an iBlot2 Gel Transfer Device. Membranes were then cut horizontally into two pieces, covering 80-50 kDa and 50-25 kDa. Blocking the membranes was performed by gently shaking in 5% (w/v) skim milk in TSB-T for 1 hr at room temperature. All primary antibodies were used at a 1/1000 in 5% (w/v) BSA dissolved in TBST and incubated with membranes over night at 4° C. Anti-IKZF1 (Ikaros; D6N9Y; 14859S), anti-IKZF3 (Aiolos; D1C1E; 15103S) antibodies were purchased from Cell Signalling Technology, anti-ZFP91 antibody from Bethyl laboratories, anti-GSPT1 from Sigma Aldrich (HPA052488) and anti CK1alpha from AbCam (ab206652). After three washes with 1×TBST for 5 min, HRP-coupled secondary antibodies diluted in 5% (w/v) BSA/TBST (Goat Anti-Rb IgG, dil. 1/10,000; Goat Anti-Mouse IgG, dil. 1/5000) were added for 1 hr at room temperature. After three washes with 1×TBST (5 minutes each), membranes were incubated with ECL reagent for 1 min at room temperature. Chemiluminescence signals were then detected using a LAS-4000 system with default settings and signals quantified using Image Studio Lite software (version 5.2). Membrane parts previously incubated with antibody against CK1alpha were stripped off antibodies by incubating with stripping buffer for 30 minutes followed by three washed with TBST (5 min each), blocking with 5% (w/v) skim milk for 1 hr, and incubation with primary antibody against GAPDH overnight at 4° C. Subsequent washes, incubation with secondary antibody and signal acquisition were performed as described above.

[5] = target: T1, GSPT1; assay: GSPT1 degradation in ABC-1 cells; assay type: cell-based; design: endogenous in cells
Experimental: as §1

[6] = target: T4, GSPT1 (Homo sapiens, UniProt P15170); assay: GSPT1 degradation in tumors of treated mice (FIG. 3B); assay type: in vivo, mouse; conditions: all three dose levels (1 mg/kg, 3 mg/kg, 6 mg/kg), compared to vehicle control
T4 construct: GSPT1 levels in tumors were determined by western blotting 6 hours after the third dose; from tissue; host or cells: NCI-H1155 (ATCC CRL-5818) xenograft tumours in female BALB/c nude mice
T4 sequence (P15170 whole entry): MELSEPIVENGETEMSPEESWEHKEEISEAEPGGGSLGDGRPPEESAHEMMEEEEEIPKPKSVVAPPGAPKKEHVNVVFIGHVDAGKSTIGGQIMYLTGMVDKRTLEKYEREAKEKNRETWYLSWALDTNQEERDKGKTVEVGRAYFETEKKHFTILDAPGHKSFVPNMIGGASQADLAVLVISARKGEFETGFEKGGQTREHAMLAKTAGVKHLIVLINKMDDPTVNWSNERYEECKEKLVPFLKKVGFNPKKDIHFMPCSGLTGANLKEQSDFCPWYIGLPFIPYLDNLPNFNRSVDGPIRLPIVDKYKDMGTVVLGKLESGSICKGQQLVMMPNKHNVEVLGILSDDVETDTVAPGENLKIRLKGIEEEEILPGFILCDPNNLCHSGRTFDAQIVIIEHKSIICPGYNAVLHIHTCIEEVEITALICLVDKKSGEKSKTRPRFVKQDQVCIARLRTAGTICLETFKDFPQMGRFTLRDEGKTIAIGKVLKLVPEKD
T4 sequence (Q96SW2 whole entry, further chain): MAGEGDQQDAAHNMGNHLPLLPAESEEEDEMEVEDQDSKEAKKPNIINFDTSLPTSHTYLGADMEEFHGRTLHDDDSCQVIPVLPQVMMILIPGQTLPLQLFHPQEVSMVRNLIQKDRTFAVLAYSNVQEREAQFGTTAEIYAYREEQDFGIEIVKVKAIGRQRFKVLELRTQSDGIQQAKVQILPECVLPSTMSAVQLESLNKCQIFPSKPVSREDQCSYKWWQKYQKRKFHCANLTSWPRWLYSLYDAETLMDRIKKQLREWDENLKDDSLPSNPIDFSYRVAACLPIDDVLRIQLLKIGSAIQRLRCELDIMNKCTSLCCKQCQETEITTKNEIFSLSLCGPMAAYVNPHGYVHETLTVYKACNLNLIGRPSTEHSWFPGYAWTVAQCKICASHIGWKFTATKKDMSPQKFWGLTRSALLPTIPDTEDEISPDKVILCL
T4 sequence (Q16531 2-1140 partner limits assumed): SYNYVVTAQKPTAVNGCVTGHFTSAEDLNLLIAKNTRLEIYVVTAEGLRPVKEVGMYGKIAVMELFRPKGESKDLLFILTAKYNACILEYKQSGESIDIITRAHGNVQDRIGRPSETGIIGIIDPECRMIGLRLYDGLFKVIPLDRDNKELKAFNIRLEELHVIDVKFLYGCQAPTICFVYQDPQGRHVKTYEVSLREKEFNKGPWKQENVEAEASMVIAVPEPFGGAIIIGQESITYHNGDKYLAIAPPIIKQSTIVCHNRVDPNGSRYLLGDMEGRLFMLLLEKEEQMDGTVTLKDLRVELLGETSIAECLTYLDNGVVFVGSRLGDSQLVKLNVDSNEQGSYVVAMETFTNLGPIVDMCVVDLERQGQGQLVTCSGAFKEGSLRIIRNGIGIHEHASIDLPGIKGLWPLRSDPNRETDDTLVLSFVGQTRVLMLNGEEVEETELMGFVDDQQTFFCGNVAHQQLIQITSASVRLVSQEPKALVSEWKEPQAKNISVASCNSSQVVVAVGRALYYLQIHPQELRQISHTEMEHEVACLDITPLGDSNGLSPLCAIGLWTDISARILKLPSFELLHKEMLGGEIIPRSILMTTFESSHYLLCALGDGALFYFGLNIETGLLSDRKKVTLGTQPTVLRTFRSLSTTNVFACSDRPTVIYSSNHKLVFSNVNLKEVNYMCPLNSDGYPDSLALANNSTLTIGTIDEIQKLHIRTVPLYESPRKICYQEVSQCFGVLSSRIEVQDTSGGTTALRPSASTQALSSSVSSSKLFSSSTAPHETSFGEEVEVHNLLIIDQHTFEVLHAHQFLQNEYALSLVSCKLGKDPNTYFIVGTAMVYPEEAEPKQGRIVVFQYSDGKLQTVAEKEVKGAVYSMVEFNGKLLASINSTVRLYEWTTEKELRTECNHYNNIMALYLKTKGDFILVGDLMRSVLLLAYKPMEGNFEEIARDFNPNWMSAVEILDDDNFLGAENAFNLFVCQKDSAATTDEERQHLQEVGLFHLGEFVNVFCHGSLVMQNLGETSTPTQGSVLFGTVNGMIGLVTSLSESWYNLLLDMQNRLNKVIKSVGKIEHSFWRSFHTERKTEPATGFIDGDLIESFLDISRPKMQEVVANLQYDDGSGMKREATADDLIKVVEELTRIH

T2 sequence (Q96SW2 whole entry): as the sequence (Q96SW2 whole entry, further chain) above
T1 sequence (P15170 whole entry): as the sequence (P15170 whole entry) above
T1 sequence (Q96SW2 whole entry): as the sequence (Q96SW2 whole entry, further chain) above
T1 sequence (Q16531 2-1140 partner limits assumed): as the sequence (Q16531 2-1140 partner limits assumed) above
T3 sequence (Q96SW2 whole entry partner): as the sequence (Q96SW2 whole entry, further chain) above
T3 sequence (Q16531 2-1140 partner limits assumed): as the sequence (Q16531 2-1140 partner limits assumed) above
T3 sequence (Q13422 whole entry): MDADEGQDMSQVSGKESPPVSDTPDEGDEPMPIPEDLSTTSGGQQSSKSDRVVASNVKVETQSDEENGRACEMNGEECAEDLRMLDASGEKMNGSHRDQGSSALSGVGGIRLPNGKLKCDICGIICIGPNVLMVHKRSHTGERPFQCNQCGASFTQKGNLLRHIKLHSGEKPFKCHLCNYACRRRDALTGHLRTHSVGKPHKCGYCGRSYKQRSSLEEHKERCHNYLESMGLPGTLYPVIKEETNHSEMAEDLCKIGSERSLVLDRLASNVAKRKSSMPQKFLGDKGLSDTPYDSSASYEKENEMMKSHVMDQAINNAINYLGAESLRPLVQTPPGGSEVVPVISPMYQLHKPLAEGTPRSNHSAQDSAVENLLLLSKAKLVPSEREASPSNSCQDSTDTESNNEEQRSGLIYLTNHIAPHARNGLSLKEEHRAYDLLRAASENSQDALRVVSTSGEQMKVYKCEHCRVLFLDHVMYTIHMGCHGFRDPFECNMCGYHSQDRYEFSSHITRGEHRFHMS

Cc1ccc(NC(=O)OCc2ccc3c(c2)C(=O)N(C2CCC(=O)NC2=O)C3)cc1Cl (stereo not shown) [Compound 10]
extent of GSPT1 degradation [1]: complete degradation | sensitivity to treatment (viability in %) [2]: highly sensitive | IC50 ([3]; bounds stated in the text lists b2059-b2061, read-out: IC50 value): < 1700 nM | IC50 ([3]; cereblon binding, class code, read-out: rFP IC50): 1100 to 1700 nM | IKZF1 degradation [4]: A | extent of GSPT1 degradation [5]: complete degradation | degradation of GSPT1 in tumors [6]: complete degradation
